{"source": "patent US20220241259A1", "about": "“COMPOSITIONS AND METHODS USING TRIGONELLINE AND VITAMINS FOR PREVENTING OR TREATING CONDITIONS OR DISORDERS IN SKELETAL MUSCLE” (SOCIETE DES PRODUITS NESTLE S.A., priority 2019, published 2022)", "key": {"[1]": {"test_system": "Human Skeletal Muscle Myotubes (HSMM)", "test": "Colorimetric NAD+ quantification in differentiated human primary myoblasts", "assay_type": "cell-based", "details": "16 h, different doses, compared to the control (FIG. 4)", "experimental": "After one day, the differentiation is induced by a medium change for 4 days. Cells were treated with synthetic trigonelline monohydrate (FIG. 4A) or with Fenugreek seed extract enriched in trigonelline containing 40.45% trigonelline (FIG. 4B) for 16 h at difference doses. NAD+ was measured using colorimetric NAD+ quantification assay (Biovision NAD+/NADH Quantitation Colorimetric Kit #k337-100)."}, "C57BL/6JRj male mice": {"test_system": "C57BL/6JRj male mice", "test": "Liver NAD+ in mice after oral gavage", "assay_type": "in vivo", "details": "equimolar of 300 mg/kg trigonelline, 120 minutes, compared to the control (FIG. 5)", "experimental": "10 weeks C57BL/6JRj male mice received trigonelline (sigma #T5509) or fenugreek seed extract enriched in trigonelline (40.45% trigonelline) by oral gavage (equimolar of 300 mg/kg trigonelline, n=8/group). After 120 minutes treatment, the liver was harvested and flash frozen in liquid nitrogen. NAD+ was measured in liver using an enzymatic method adapted from Dall, M., et al., Mol Cell Endocrinol, 2018. 473: p. 245-256."}, "[2]": {"test_system": "Human Skeletal Muscle Myotubes (HSMM)", "details": "6 h", "experimental": "Human primary myoblasts from two different donors were seeded in 6 well plates at a density of 200′000 cells per well in skeletal muscle growth medium (SKM-M, AMSbio). After one day, the differentiation was induced by a medium change for 4 days using differentiation culture medium (Gibco No. 31330-028). Cells were treated with isotopically labelled trigonelline (^13C carbonyl; 3^2H on methyl) for 6 h.\nCell extracts were separated on a Vanquish UHPLC+ focused LC system (Thermo Scientific) with a hydrophilic liquid chromatography (HILIC) iHILIC-Fusion(P) column (Hilicon) carrying the dimensions 150×2.1 mm, 5 μm and a guard column (iHILIC-fusion(P), Hilicon) in front. The separation of metabolites was achieved by applying a linear solvent gradient in normal phase at 0.25 mL/min flow rate and 35° C. of temperature. As mobile phase, solvent A was water with 10 mM ammonium acetate and 0.04% (v/v) ammonium hydroxide, pH ˜9.3, and solvent B was acetonitrile.\nThe eluting metabolites were analyzed with an Orbitrap Fusion Lumos mass spectrometer (Thermo Scientific) with a heated electrospray ionization (H-ESI) source in positive and negative mode at a resolution of 60,000 at m/z of 200. Instrument control and data analysis were conducted using Xcalibur (Thermo Scientific)."}, "C. elegans [3]": {"test_system": "C. elegans", "details": "1 mM, chronic exposure from Day 1 adulthood (FIG. 7A)", "experimental": "Worm lifespan tests were performed using about 100 animals per condition and scored manually every other day. Trigonelline treatment and experimental measurements were started at Day 1 of wild type N2 worm adulthood, in a regimen of chronic exposure till experiments termination."}, "C. elegans [4]": {"test_system": "C. elegans", "details": "1 mM", "experimental": "C. elegans mobility test was performed using the Movement Tracker software (Mouchiroud, L. et al. Curr Protoc Neurosci 77, 8.37.1-8.37.21 (2016)). The experiments were repeated at least twice. Trigonelline treatment and experimental measurements were started at Day 1 of wild type N2 worm adulthood, in a regimen of chronic exposure till experiments termination."}, "C. elegans [5]": {"test_system": "C. elegans", "details": "1 mM, day 8 and day 11 old worms (FIG. 7D)", "from_the_text": "45 to 60 worms per condition were manually scored for mobility after poking. Worms that were unable to respond to any repeated stimulation were scored as dead. […] Trigonelline treatment and experimental measurements were started at Day 1 of wild type N2 worm adulthood, in a regimen of chronic exposure til experiments termination."}, "[6]": {"test_system": "RW1596 (myo-3p::GFP) worms", "details": "1 mM trigonelline chloride, 11 day old worms vs age matched control", "experimental": "RW1596 (myo-3p::GFP) worms were collected at Day 1 (young adults) and at Day 11 (aged animals) for muscle integrity assessment. Worms were immobilized with tetramisole and analyzed by confocal microscopy, to assess the muscle fibers morphology shown by GFP fluorescence imaging. Trigonelline treatment with 1 mM trigonelline chloride and experimental measurements were started at Day 1 of wild type N2 worm adulthood, in a regimen of chronic exposure till experiments termination."}, "wild type N2 worms": {"test_system": "wild type N2 worms", "details": "1 mM trigonelline chloride, day 8 old worms (FIG. 8)", "experimental": "Absolute quantification of the mtDNA copy number in wild type N2 worms was performed by real-time PCR. Relative values for nduo-1, and act-1 were compared within each sample to generate a ratio representing the relative level of mitochondrial DNA per nuclear genome. The average of at least two technical repeats was used for each biological data point. Each experiment was performed on at least ten independent biological samples (individual worms). Trigonelline treatment with 1 mM trigonelline chloride and experimental measurements were started at Day 1 of wild type N2 worm adulthood, in a regimen of chronic exposure till experiments termination."}}}
{"compound": "C[n+]1cccc(C(=O)O)c1.[OH-]", "note": "[chemically synthesized trigonelline]", "values": [{"measurement": "NAD+ content", "setting": "[1]", "result": "significant increase"}, {"measurement": "NAD+ content in the liver", "setting": "C57BL/6JRj male mice", "result": "significant increase"}]}
{"compound": "[2H]C([2H])([2H])[n+]1cccc([13C](=O)[O-])c1", "note": "[labelled trigonelline]", "values": [{"measurement": "relative abundance of labelled NAD+ (M+ 1)", "setting": "[2]; labelled trigonelline 500 μm, vs naturally occurring NAD+ control (FIG. 2B)", "result": "increase in relative abundance of labelled NAD+ (M+ 1)"}]}
{"compound": "C[n+]1cccc(C(=O)O)c1", "note": "[trigonelline chloride]", "values": [{"measurement": "lifespan increase", "setting": "C. elegans [3]", "result": 21, "unit": "%"}, {"measurement": "distance travelled during spontaneous mobility assay", "setting": "C. elegans [4]; advanced aging phase, compared to control (FIG. 7C)", "result": "significantly increased"}, {"measurement": "mean speed during spontaneous mobility assay", "setting": "C. elegans [4]; from day 1 adulthood, compared to control (FIG. 7B)", "result": "increased the mean speed"}, {"measurement": "stimulated mobility score (percentage of worms responsive to a physical stimulus)", "setting": "C. elegans [5]", "result": "more responsive to a physical stimulus than the control"}]}
{"compound": "C[n+]1cccc(C(=O)[O-])c1", "note": "[trigonelline, 1-methylpyridin-1-ium-3-carboxylate]", "values": [{"measurement": "NAD+ relative concentration", "setting": "[2]; 500 μm, HSMM from 2 donors, LC-MS, relative to control (FIG. 2A)", "result": "enhancement of NAD+"}, {"measurement": "myofibrillar structure (GFP-tagged myosin)", "setting": "[6]", "result": "improved more organized myofibrillar structure"}, {"measurement": "mitochondrial (nduo-1) relative to nuclear (act-1) DNA ratio", "setting": "wild type N2 worms", "result": "higher than in the control group"}]}
